Test results published in ChEMBL document CHEMBL1201862, “PubChem BioAssay data set” (2004).
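Exposure lasted 48 hours, with cells grown in 96-well plates and compounds tested at five concentrations. Here, GI50 denotes the concentration required for 50% inhibition of growth.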 The source made the active and inactive calls. No stated cut-off is given here; in the data, active = GI50 up to about 1.1 µM and inactive = higher.

Legend:
Assay in all cases: DTP human tumour cell line panel, 48 h
786-0 = tested on: 786-0
A498 = tested on: A498
A549 = tested on: A549
ACHN = tested on: ACHN
BT-549 = tested on: BT-549
CAKI-1 = tested on: CAKI-1
CCRF-CEM = tested on: CCRF-CEM
COLO 205 = tested on: COLO 205
DU-145 = tested on: DU-145
EKVX = tested on: EKVX
HCC 2998 = tested on: HCC 2998
HCT-116 = tested on: HCT-116
HCT-15 = tested on: HCT-15
HOP-62 = tested on: HOP-62
HOP-92 = tested on: HOP-92
HT-29 = tested on: HT-29
Hs-578T = tested on: Hs-578T
IGROV-1 = tested on: IGROV-1
K562 = tested on: K562
KM12 = tested on: KM12
M14 = tested on: M14
MCF7 = tested on: MCF7
MDA-MB-231 = tested on: MDA-MB-231
MDA-MB-435 = tested on: MDA-MB-435
MOLT-4 = tested on: MOLT-4
Malme-3M = tested on: Malme-3M
NCI-H226 = tested on: NCI-H226
NCI-H23 = tested on: NCI-H23
NCI-H460 = tested on: NCI-H460
NCI-H522 = tested on: NCI-H522
NCI/ADR-RES = tested on: NCI/ADR-RES
OVCAR-3 = tested on: OVCAR-3
OVCAR-4 = tested on: OVCAR-4
OVCAR-5 = tested on: OVCAR-5
OVCAR-8 = tested on: OVCAR-8
PC-3 = tested on: PC-3
RXF 393 = tested on: RXF 393
SF-268 = tested on: SF-268
SF-295 = tested on: SF-295
SF-539 = tested on: SF-539
SK-MEL-28 = tested on: SK-MEL-28
SK-MEL-2 = tested on: SK-MEL-2
SK-MEL-5 = tested on: SK-MEL-5
SK-OV-3 = tested on: SK-OV-3
SN12C = tested on: SN12C
SNB-19 = tested on: SNB-19
SNB-75 = tested on: SNB-75
SR = tested on: SR
SW-620 = tested on: SW-620
T47D = tested on: T47D
TK-10 = tested on: TK-10
U-251 = tested on: U-251
UACC-257 = tested on: UACC-257
UACC-62 = tested on: UACC-62
UO-31 = tested on: UO-31

Compound: Cn1nc2ccc(Nc3cc(=O)[nH]c4ccc5nn(C)nc5c34)cc2n1
- GI50 (786-0): > 100 µM (inactive)
- GI50 (A498): > 100 µM (inactive)
- GI50 (A549): > 100 µM (inactive)
- GI50 (ACHN): > 100 µM (inactive)
- GI50 (BT-549): > 100 µM (inactive)
- GI50 (CAKI-1): > 100 µM (inactive)
- GI50 (CCRF-CEM): > 100 µM (inactive)
- GI50 (COLO 205): > 100 µM (inactive)
- GI50 (DU-145): > 100 µM (inactive)
- GI50 (EKVX): > 100 µM (inactive)
- GI50 (HCC 2998): > 100 µM (inactive)
- GI50 (HCT-116): > 100 µM (inactive)
- GI50 (HCT-15): > 100 µM
- GI50 (HOP-62): > 100 µM (inactive)
- GI50 (HOP-92): > 100 µM (inactive)
- GI50 (HT-29): > 100 µM (inactive)
- GI50 (Hs-578T): > 100 µM (inactive)
- GI50 (IGROV-1): 50.5 µM (inactive)
- GI50 (K562): 50 µM (inactive)
- GI50 (KM12): > 100 µM (inactive)
- GI50 (M14): > 100 µM (inactive)
- GI50 (MCF7): > 100 µM (inactive)
- GI50 (MDA-MB-231): > 100 µM (inactive)
- GI50 (MDA-MB-435): > 100 µM (inactive)
- GI50 (MOLT-4): 82.2 µM (inactive)
- GI50 (Malme-3M): > 100 µM (inactive)
- GI50 (NCI-H226): > 100 µM (inactive)
- GI50 (NCI-H23): > 100 µM (inactive)
- GI50 (NCI-H460): > 100 µM (inactive)
- GI50 (NCI-H522): 65.6 µM (inactive)
- GI50 (NCI/ADR-RES): > 100 µM (inactive)
- GI50 (OVCAR-3): > 100 µM (inactive)
- GI50 (OVCAR-4): > 100 µM (inactive)
- GI50 (OVCAR-5): > 100 µM (inactive)
- GI50 (OVCAR-8): > 100 µM (inactive)
- GI50 (PC-3): > 100 µM (inactive)
- GI50 (RXF 393): > 100 µM (inactive)
- GI50 (SF-268): > 100 µM (inactive)
- GI50 (SF-295): > 100 µM (inactive)
- GI50 (SF-539): > 100 µM (inactive)
- GI50 (SK-MEL-28): > 100 µM (inactive)
- GI50 (SK-MEL-2): > 100 µM (inactive)
- GI50 (SK-MEL-5): > 100 µM (inactive)
- GI50 (SK-OV-3): > 100 µM (inactive)
- GI50 (SN12C): > 100 µM (inactive)
- GI50 (SNB-19): > 100 µM (inactive)
- GI50 (SNB-75): > 100 µM (inactive)
- GI50 (SR): 53.2 µM (inactive)
- GI50 (SW-620): > 100 µM (inactive)
- GI50 (T47D): > 100 µM (inactive)
- GI50 (TK-10): > 100 µM (inactive)
- GI50 (U-251): > 100 µM (inactive)
- GI50 (UACC-257): > 100 µM (inactive)
- GI50 (UACC-62): > 100 µM (inactive)
- GI50 (UO-31): > 100 µM (inactive)
